Assay results as given in US20100267067A1, “Synthase Inhibitor Screening Method” (priority 2007, published 2010).

Columns and labels:
Assay type in all cases: cell-based
[1] = tested on: Saccharomyces cerevisiae JG 169; experiment: Yeast growth on triglyceride (olive oil) plates containing cerulenin; conditions: 5 mg cerulenin per approx. 510 ml SC-ura agar with olive oil; pENI4158 (lipase) vs pENI3659 (control) transformants
Experimental: Plasmids pENI3659 (control) and pENi4158 (with lipase gene) were transformed into the yeast strain Saccharomyces cerevisiae JG 169 (MAT-alpha; ura 3-52; leu 2-3, 112; his 3-D200; pep 4-113; prc1::HIS3; prb1::LEU2). The transformed yeast was streaked onto plates containing cerulenine and olive oil.
To 450 ml SC-ura-basic agar was added 50 ml 20% glucose and 10 ml olive oil. An UltraTurax™ […] (IKA Labortechnik, Germany) was used to disperse the olive oil. 5 mg cerulenin dissolve in 1 ml ethanol was added and 500 microliter ampicillin (100 mg/ml)). This mix was poured into […] 9 cm petri dishes.
SC-ura-basic agar: 7.5 g Yeast Nitrogen Base without amino acids, 11.3 g Bernstein, 6.8 g NaOH, 5.6 g casamino acids, 0.1 g L-tryptophan, 20 g agar in total of 900 ml water.

[2] = tested on: Bacillus strain secreting a wildtype protease denoted '10R' (SOL000); experiment: Plate growth of Bacillus secreting wildtype 10R protease on LB agar with MGMM and CMA; conditions: for Growth on the plate, 10R WT (SOL000): LB agar with MGMM, 37° C. overnight
From the text: (§1) We wanted to find a concentration of carboxymethoxylhydroxylamine (CMA) that allows only protease-secreting Bacillus colonies to grow in the presence of the small peptide met-gly-met-met (MGMM). CMA inhibits the methionine synthesis in Bacillus cells, which severely hampers their growth. However, in the presence of MGMM, protease-secreting Bacillus cells can grow on CMA containing media. Secreted proteases degrade the MGMM peptide thereby releasing free methionine residues, which are taken up by the protese-secreting Bacillus cells and used for protein synthesis.
(§2) 500 ml LB agar was melted and placed in an incubator until the agar reached 60° C. 5 ml met-gly-met-met (MGMM, Sigma M4786-250MG) (5 mg/ml) and 300 microliter 1% chloramphenicol (in 70% ethanol) was added to the agar.
(§3) 4×25 ml media was transferred with a 25 ml Stripette™ to clean 25 ml Nunc™ containers. Different amounts of CMA (Aldrich C13408-1 g) were added to the media as indicated in the scheme below. All 25 ml media was poured into 9 cm petri dishes and dried in a clean bench; except for the “6×CMA on the plate” where 25 ml media was poured on a 9 cm petridish and dried and 600 microliter CMA (0.56 mg/ml) was spread on the plate afterwards.
(§4) The two micro-organisms were streaked on the 6 different types of plates. All plates were incubated upside down at 37° C. overnight.

[3] = tested on: Bacillus strain secreting inactive 10R protease (S143A) (SOL218); experiment: Plate growth of Bacillus secreting inactive 10R protease on LB agar with MGMM and CMA; conditions: LB agar with MGMM, 37° C. overnight
From the text: as §1, §2, §3, §4

[4] = 5xCMA in the plate, 11.2 mg/L CMA
[5] = 6xCMA in the plate, 13.4 mg/L CMA
[6] = 6xCMA on the plate (spread on dried plate), 13.4 mg/L CMA
[7] = 7xCMA in the plate, 15.7 mg/L CMA
[8] = 8xCMA in the plate, 17.9 mg/L CMA

## C/C=C/C/C=C/CCC(=O)[C@H]1O[C@H]1C(N)=O [cerulinine, cerulenin]
[1]
  Growth of transformed yeast on the triglyceride plates in the presence of cerulinine: Only yeast cells transformed with pENI4158, which express active lipase, were able to grow

## O=C(O)CONO [CMA, carboxymethoxylhydroxylamine]
[2]; [4]
  Growth on the plate, 10R WT (SOL000): Yes
[2]; [5]
  Growth on the plate, 10R WT (SOL000): No
[2]; [6]
  Growth on the plate, 10R WT (SOL000): No
[2]; [7]
  Growth on the plate, 10R WT (SOL000): No
[2]; [8]
  Growth on the plate, 10R WT (SOL000): No
[2]; LB agar with 11.2 mg/L CMA as well as MGMM in the plate, summary of Table 3
  Growth of Bacillus transformant cells which secrete active 10R protease, versus those that do not: only those can grow
[3]; [4]
  Growth on the plate, 10R inactive (SOL218): No
[3]; [5]
  Growth on the plate, 10R inactive (SOL218): No
[3]; [6]
  Growth on the plate, 10R inactive (SOL218): No
[3]; [7]
  Growth on the plate, 10R inactive (SOL218): No
[3]; [8]
  Growth on the plate, 10R inactive (SOL218): No
